# PMC11056991, “Promising Anticancer Prodrugs Based on Pt(IV) Complexes with Bis-organosilane Ligands in Axial Positions” (Journal of Medicinal Chemistry, 2024)
# Assays:
# [1] = 195Pt NMR reduction kinetics with ascorbic acid; assay type: physicochemical; conditions: AsA 4:1 excess, DMSO/D2O (4:1), 37 °C, 2, 6, 24 h
# Experimental: (§1) AsA presents an intracellular concentration of 1 mM, whereas the GSH concentration is 2 mM.[38] This reactivity was monitored by ^195Pt NMR at different times. Thus, by analyzing the different regions where the signals of Pt(II)/Pt(IV) species appear, it is possible to identify and assign the different compounds formed during the reaction. In most cases, the regions where the Pt(II) and Pt(IV) signals appear are separated by more than 3000 ppm.[33]
# We first studied the reduction of the complexes against AsA, monitoring the reaction in both the Pt(IV) and Pt(II) region at 2, 6, and 24 h. In both cases, we used a mixture of DMSO/D2O (4:1) to reach the solubilization of the complexes and the AsA. In the Pt(IV)-biSi-1 reduction experiment, during the first hour, only the signal at 1210 ppm appeared in the Pt(IV) region (Figure S13A), which corresponds to the original complex, and no signal was detected in the Pt(II) region.
# Each solution was then slowly added to 100 μL of a solution of the corresponding reducing agent (AsA or GSH in an excess of 4:1 against each complex) in D2O at 37 °C. After that, 100 μL of DMSO-d6 was added carefully to each mixture, reaching a final concentration of […] (DMSO-d6/D2O). All of these mixtures were performed using a thermoshaker. Each sample was monitored by ^195Pt NMR at 2, 6, and 24 h.
# [2] = tested on: HCT 116 human colon cancer cells; test: MTT cell viability assay, HCT 116; assay type: cell-based; conditions: MTT
# Experimental: (§2) HIEC6 human healthy intestinal cells and HCT 116 and HT-29 human colon cancer cells were supplied by ATCC. Colon cancer cells were cultured in Dulbecco’s modified Eagle’s medium (DMEM) for HCT 116 and HT-29 supplemented with fetal bovine serum (10%). HIEC6 cells were cultured in Opti-MEM supplemented with fetal bovine serum (4%), HEPES (20 mM), glutamine (10 mM), and epidermal growth factor (10 ng/mL). Cells were maintained at 37 °C in a humidified atmosphere containing 5% CO2. Cells were seeded at 30% confluence in DMEM for HCT 116 and in Opti-MEM for HIEC6; after cell adhesion, HIEC6 cells were cultured in DMEM for 24h before being treated. All cells were treated with the indicated components at concentrations of 0.25–50 μM and incubated for 1–5 days as specified.
# (§3) The MTT assay relies on a colorimetric reaction based on the capacity of living cells to reduce MTT to formazan and change the color to purple, which is easily measured by colorimetry. This assay estimates the cellular viability after the indicated treatments. Cells were treated with MTT (1:10 in culture medium) and incubated at 37 °C for 3 h for HCT 116 and HT-29 or 6 h for HIEC6. After removal of the medium, the formazan was resuspended in DMSO, transferred to p96 plates, and analyzed by a SpectraFLUOR (Tecan) at 542 nm. In all cases, viability was measured in duplicates of each point in three independent experiments.
# [3] = tested on: HIEC6 human healthy intestinal cells; test: MTT cell viability assay, HIEC6; assay type: cell-based; conditions: MTT; for Reduction in viability of healthy cells (HIEC6): 5 μM
# Experimental: as §2, §3
# [4] = 195Pt NMR reduction kinetics with glutathione; assay type: physicochemical; conditions: GSH 4:1 excess, DMSO/D2O (4:1), 37 °C, 2, 6, 24 h
# Experimental: as §1
# The reactivity of both complexes toward the reducing agent GSH was also studied using the DMSO/D2O (4:1) mixture. […] In the Pt(II) region, two signals appeared after 24 h at −2728 and −3405 ppm (Figure 2G). The first value is consistent with the cis-PtN2SX fraction,[41],[42] meaning that this species, once reduced to its Pt(II) homologue, coordinates with GSH by displacing a chloride ligand. The second signal corresponds to another Pt(II) moiety with more than one ligand containing sulfur atoms. […]
# Each solution was then slowly added to 100 μL of a solution of the corresponding reducing agent (AsA or GSH in an excess of 4:1 against each complex) in D2O at 37 °C. […] Each sample was monitored by ^195Pt NMR at 2, 6, and 24 h.
# HCT 116 cells = test: Trypan blue exclusion test; assay type: cell-based, human; conditions: HCT 116, 0.5 μM, 2 days
# Experimental: HCT 116 cells were harvested by trypsinization followed by centrifugation at 500g for 5 min. The cell pellet was resuspended in 1 mL of PBS. Equal volumes of trypan blue (Bio-Rad cat. no. 1450021) 0.4% and cell suspension were mixed and incubated for 1–3 min at room temperature, and cell counting was carried out using a TC20 Automated Cell Counter (Bio-Rad cat. no. 1450102). The percentage of viable cells was calculated by dividing the number of viable cells per milliliter by the number total of cells per milliliter) × 100. Representative images were acquired using a Zeis light microscope with a 20× objective.
# [5] = Stability in DMEM by 195Pt NMR; assay type: physicochemical; conditions: DMSO-d6/DMEM 1:4, 37 °C, 0, 24, 48, 120 h
# Text: We then decided to evaluate the stability of the two Pt(IV) complexes in the medium (DMEM) used to carry out the in vitro experiments, monitoring their kinetics by ^195Pt NMR at different times to evaluate the possible species formed over time. DMEM is supplemented with proteins and other molecules essential for cell growth (Experimental Section). Thus, similar to the reduction assays, we analyzed the Pt(II)/Pt(IV) region where the expected species appear. […] Both Pt(IV)/Pt(II) signals disappeared after 48 h, most likely again because of the binding of the complex to the proteins.
# To each solution was then slowly and carefully added 300 μL of DMEM to avoid the precipitation of the complex, reaching a final concentration of 1:4 (DMSO-d6/DMEM). All these mixtures were performed using a thermoshaker. Each sample was monitored by ^195Pt NMR at 0, 24, 48, and 120 h.
# [6] = tested on: p53 protein levels in HCT 116 cells; test: Western blot of p53 levels; assay type: cell-based, human; conditions: HCT 116, 48 h, increasing concentrations
# Experimental: Confocal imaging of the DNA damage response was followed by immunofluorescence of histone gH2Ax foci at double-strand DNA breaks (DSB) (Figure 4A). […] However, none of the Pt(IV) prodrugs were able to increase p53 levels even at concentrations higher than those needed to reduce cell viability.
# Cells were washed with iced PBS before extract preparation and scraped in whole-cell protein lysis buffer (62.5 mM Tris-HCl pH 6.8, 2% sodium dodecyl sulfate (SDS), 0.01% bromophenol blue sodium salt, and 10% glycerol). Whole-cell protein lysates were incubated 15 min at 95 °C and directly used as whole cell extract or frozen at −80 °C. Proteins from lysed cells or immunoprecipitates were denatured and loaded on sodium dodecyl sulfate polyacrylamide gels and then transferred to polyvinylidene difluoride membranes (Bio-Rad). After blocking with 5% (w/v) milk, the membrane was incubated with the corresponding primary antibodies, anti-p53 sc-126 (Santa Cruz Biotechnology) or anti-tubulin (Sigma-Aldrich), and secondary antibodies (Bio-Rad). The specific bands were analyzed using the ChemiDoc Imaging Systems (Bio-Rad).
# [7] = 2 days, (final complexes, Figure 3B)
# [8] = 2 days, experiment with intermediates, Figure 3A
molecule,measurement,setting,value
"CCO[Si](CCCNC(=O)[O][Pt]([NH2])([NH2])([Cl])([Cl])[O]C(=O)NCCC[Si](OCC)(OCC)OCC)(OCC)OCC [Pt(IV)-biSi-1, cis-Dichloro(diamine)-trans-[3-(triethoxysilyl)propylcarbamate]platinum(IV)]",Reduction of the Pt(IV) complex by AsA (Pt(IV) signal in 195Pt NMR),[1],"after 24 h, this signal underwent a marked decrease in intensity"
same,"Cell viability, HCT 116 0.5uM 2 days","[2]; 0.5 uM, 2 days",70.1 ± 6.0%
same,Reduction of viability (cytotoxicity) of HCT 116 tumor cells,"[2]; 0.5 μM, 2 days",very similar to those of cisplatin
same,"Cell viability, HCT 116 0.5uM 5 days","[2]; 0.5 uM, 5 days",87.0 ± 5.0%
same,Reduction in viability of cancer cells (HCT 116),"[2]; 5 μM, 2 days",20%
same,"Cell viability, HCT 116 5uM 2 days",[2]; [7],78.8 ± 3.1%
same,IC50,"[2]; 48 h, supplementary CSV, read-out: IC50 (uM) HCT 116",8.9 ± 0.6 µM
same,"Cell viability, HIEC6 0.5uM 2 days","[3]; 0.5 uM, 2 days",99.5 ± 1.8%
same,"Cell viability, HIEC6 0.5uM 5 days","[3]; 0.5 uM, 5 days",105.3 ± 3.6%
same,Reduction in viability of healthy cells (HIEC6),[3]; 2 days,60%
same,"Cell viability, HIEC6 5uM 2 days",[3]; [7],40.0 ± 1.8%
same,IC50,"[3]; 48 h, supplementary CSV, read-out: IC50 (uM) HIEC6",5.1 ± 0.7 µM
same,Reduction of the Pt(IV) complex by GSH (Pt(IV) signal in 195Pt NMR),[4],"at 24 h, there is still a fraction of free complex without undergoing reduction"
same,Reduction of viability by trypan blue staining,HCT 116 cells,20%
same,Stability in DMEM (Pt(IV) signal in 195Pt NMR),[5],"decreases with time up to 48 h, where a small fraction of the initial complex remains intact"
"N.N.[Cl][Pt][Cl] [cisplatin, Cisplatin, reference compound]","Cells survived, HCT 116","[2]; 5 μM, 5 days chronic treatment",more than 50%
same,Reduction in viability of healthy cells (HIEC6),[3]; 2 days,60%
same,p53 levels,[6],increased p53 levels (at all concentrations)
same,Reduction of viability by trypan blue staining,HCT 116 cells,20%
"N.N.[Cl-].[Cl-].[OH-].[OH-].[Pt+4] [oxoplatin, cis-Dichloro(diamine)-trans-dihydroxoplatinum(IV), reference compound]","Cell viability, HCT 116 5uM 2 days",[2]; [8],82.9 ± 6.0%
same,"Cell viability, HIEC6 5uM 2 days",[3]; [8],65.3 ± 10.9%
"cis-Dichloro(diisopropylamine)-trans-dihydroxoplatinum(IV) [iproplatin, reference compound]","Cell viability, HCT 116 5uM 2 days",[2]; [8],73.6 ± 5.4%
same,"Cell viability, HIEC6 5uM 2 days",[3]; [8],69.8 ± 6.3%
